#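 Compound exposure: 48 hours, 5 concentrations, 96-well plates. The concentration for 50% growth inhibition is given as GI50. TGI: concentration producing complete growth inhibition.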
# Tests used:
# Test in all cases: NCI-60 cell line screen, 48 h
# SR leukemia = system: SR leukemia
# SNB-19 CNS = system: SNB-19 CNS
# SN12C renal = system: SN12C renal
# MOLT-4 leukemia = system: MOLT-4 leukemia
# A498 renal = system: A498 renal
# OVCAR-3 ovarian = system: OVCAR-3 ovarian
# UO-31 renal = system: UO-31 renal
# SF-295 CNS = system: SF-295 CNS
# SW-620 colon = system: SW-620 colon
# NCI-H226 lung = system: NCI-H226 lung
# HOP-62 NSCLC = system: HOP-62 NSCLC
# MALME-3M melanoma = system: MALME-3M melanoma
# SNB-75 CNS = system: SNB-75 CNS
# NCI-H460 lung = system: NCI-H460 lung
# PC-3 prostate = system: PC-3 prostate
# RXF 393 renal = system: RXF 393 renal
# T-47D breast = system: T-47D breast
# HOP-92 NSCLC = system: HOP-92 NSCLC
# NCI-H522 lung = system: NCI-H522 lung
# DU-145 prostate = system: DU-145 prostate
# CCRF-CEM leukemia = system: CCRF-CEM leukemia
# HL-60(TB) leukemia = system: HL-60(TB) leukemia
# SF-539 CNS = system: SF-539 CNS
# OVCAR-8 ovarian = system: OVCAR-8 ovarian
# U251 CNS = system: U251 CNS
# IGROV1 ovarian = system: IGROV1 ovarian
# LOX IMVI melanoma = system: LOX IMVI melanoma
# K-562 leukemia = system: K-562 leukemia
# HS 578T breast = system: HS 578T breast
# ACHN renal = system: ACHN renal
# NCI-H23 lung = system: NCI-H23 lung
# COLO 205 colon = system: COLO 205 colon
# A549 NSCLC = system: A549 NSCLC
# HCT-116 colon = system: HCT-116 colon
# SF-268 CNS = system: SF-268 CNS
# EKVX NSCLC = system: EKVX NSCLC
# NCI/ADR-RES ovarian = system: NCI/ADR-RES ovarian
# 786-0 renal = system: 786-0 renal
# HT29 colon = system: HT29 colon
# MDA-MB-231 breast = system: MDA-MB-231 breast
# BT-549 breast = system: BT-549 breast
# KM12 colon = system: KM12 colon
# OVCAR-4 ovarian = system: OVCAR-4 ovarian
# UACC-62 melanoma = system: UACC-62 melanoma
# UACC-257 melanoma = system: UACC-257 melanoma
# RPMI-8226 leukemia = system: RPMI-8226 leukemia
# HCT-15 colon = system: HCT-15 colon
# HCC-2998 colon = system: HCC-2998 colon
# SK-MEL-5 melanoma = system: SK-MEL-5 melanoma
# SK-MEL-28 melanoma = system: SK-MEL-28 melanoma
# TK-10 renal = system: TK-10 renal
# MDA-MB-435 = system: MDA-MB-435
# CAKI-1 renal = system: CAKI-1 renal
# SK-MEL-2 melanoma = system: SK-MEL-2 melanoma
# M14 melanoma = system: M14 melanoma
# MCF7 breast = system: MCF7 breast
# OVCAR-5 ovarian = system: OVCAR-5 ovarian
# SK-OV-3 ovarian = system: SK-OV-3 ovarian
smiles,measurement,setting,value
C/C(Nc1ccc(F)cc1)=C1/CCOC1=O,TGI,SR leukemia,> 100 µM
same,TGI,SNB-19 CNS,> 100 µM
same,TGI,SN12C renal,> 100 µM
same,TGI,MOLT-4 leukemia,> 100 µM
same,TGI,A498 renal,> 100 µM
same,TGI,OVCAR-3 ovarian,> 100 µM
same,TGI,UO-31 renal,> 100 µM
same,TGI,SF-295 CNS,> 100 µM
same,TGI,SW-620 colon,> 100 µM
same,TGI,NCI-H226 lung,> 100 µM
same,TGI,HOP-62 NSCLC,> 100 µM
same,TGI,MALME-3M melanoma,> 100 µM
same,TGI,SNB-75 CNS,> 100 µM
same,TGI,NCI-H460 lung,> 100 µM
same,TGI,PC-3 prostate,> 100 µM
same,TGI,RXF 393 renal,> 100 µM
same,TGI,T-47D breast,> 100 µM
same,TGI,HOP-92 NSCLC,> 100 µM
same,TGI,NCI-H522 lung,> 100 µM
same,TGI,DU-145 prostate,> 100 µM
same,TGI,CCRF-CEM leukemia,> 100 µM
same,TGI,HL-60(TB) leukemia,> 100 µM
same,TGI,SF-539 CNS,> 100 µM
same,TGI,OVCAR-8 ovarian,> 100 µM
same,TGI,U251 CNS,> 100 µM
same,TGI,IGROV1 ovarian,> 100 µM
same,TGI,LOX IMVI melanoma,> 100 µM
same,TGI,K-562 leukemia,> 100 µM
same,TGI,HS 578T breast,> 100 µM
same,TGI,ACHN renal,> 100 µM
same,TGI,NCI-H23 lung,> 100 µM
same,TGI,COLO 205 colon,47 µM
same,TGI,A549 NSCLC,> 100 µM
same,TGI,HCT-116 colon,> 100 µM
same,TGI,SF-268 CNS,> 100 µM
same,TGI,EKVX NSCLC,> 100 µM
same,TGI,NCI/ADR-RES ovarian,> 100 µM
same,TGI,786-0 renal,> 100 µM
same,TGI,HT29 colon,> 100 µM
same,TGI,MDA-MB-231 breast,> 100 µM
same,TGI,BT-549 breast,> 100 µM
same,TGI,KM12 colon,> 100 µM
same,TGI,OVCAR-4 ovarian,> 100 µM
same,TGI,UACC-62 melanoma,> 100 µM
same,TGI,UACC-257 melanoma,> 100 µM
same,TGI,RPMI-8226 leukemia,> 100 µM
same,TGI,HCT-15 colon,> 100 µM
same,TGI,HCC-2998 colon,> 100 µM
same,TGI,SK-MEL-5 melanoma,> 100 µM
same,TGI,SK-MEL-28 melanoma,> 100 µM
same,TGI,TK-10 renal,> 100 µM
same,TGI,MDA-MB-435,> 100 µM
Clc1nc(Cl)c2ncn(C/C=C/COc3cccc(OC/C=C/Cn4cnc5c(Cl)nc(Cl)nc54)c3)c2n1,GI50,SNB-19 CNS,> 100 µM
same,TGI,SNB-19 CNS,> 100 µM
same,GI50,SN12C renal,> 100 µM
same,TGI,SN12C renal,> 100 µM
same,GI50,MOLT-4 leukemia,26.5 µM
same,TGI,MOLT-4 leukemia,> 100 µM
same,GI50,A498 renal,> 100 µM
same,TGI,A498 renal,> 100 µM
same,GI50,OVCAR-3 ovarian,95 µM
same,TGI,OVCAR-3 ovarian,> 100 µM
same,GI50,UO-31 renal,> 100 µM
same,TGI,UO-31 renal,> 100 µM
same,GI50,SF-295 CNS,> 100 µM
same,TGI,SF-295 CNS,> 100 µM
same,GI50,CAKI-1 renal,> 100 µM
same,TGI,CAKI-1 renal,> 100 µM
same,GI50,SK-MEL-2 melanoma,> 100 µM
same,TGI,SK-MEL-2 melanoma,> 100 µM
same,GI50,SW-620 colon,> 100 µM
same,TGI,SW-620 colon,> 100 µM
same,GI50,NCI-H226 lung,> 100 µM
same,TGI,NCI-H226 lung,> 100 µM
same,GI50,HOP-62 NSCLC,99.6 µM
same,TGI,HOP-62 NSCLC,> 100 µM
same,GI50,MALME-3M melanoma,> 100 µM
same,TGI,MALME-3M melanoma,> 100 µM
same,GI50,SNB-75 CNS,57.1 µM
same,TGI,SNB-75 CNS,> 100 µM
same,GI50,NCI-H460 lung,> 100 µM
same,TGI,NCI-H460 lung,> 100 µM
same,GI50,PC-3 prostate,42 µM
same,TGI,PC-3 prostate,> 100 µM
same,GI50,RXF 393 renal,65 µM
same,TGI,RXF 393 renal,> 100 µM
same,GI50,T-47D breast,99.8 µM
same,TGI,T-47D breast,> 100 µM
same,GI50,HOP-92 NSCLC,> 100 µM
same,TGI,HOP-92 NSCLC,> 100 µM
same,GI50,NCI-H522 lung,> 100 µM
same,TGI,NCI-H522 lung,> 100 µM
same,GI50,M14 melanoma,32.7 µM
same,TGI,M14 melanoma,> 100 µM
same,GI50,DU-145 prostate,14.7 µM
same,TGI,DU-145 prostate,27.8 µM
same,GI50,CCRF-CEM leukemia,31 µM
same,TGI,CCRF-CEM leukemia,> 100 µM
same,GI50,HL-60(TB) leukemia,14.7 µM
same,TGI,HL-60(TB) leukemia,27.8 µM
same,GI50,SF-539 CNS,> 100 µM
same,TGI,SF-539 CNS,> 100 µM
same,GI50,OVCAR-8 ovarian,> 100 µM
same,TGI,OVCAR-8 ovarian,> 100 µM
same,GI50,U251 CNS,65.6 µM
same,TGI,U251 CNS,> 100 µM
same,GI50,IGROV1 ovarian,> 100 µM
same,TGI,IGROV1 ovarian,> 100 µM
same,GI50,LOX IMVI melanoma,25.9 µM
same,TGI,LOX IMVI melanoma,> 100 µM
same,GI50,K-562 leukemia,29.7 µM
same,TGI,K-562 leukemia,> 100 µM
same,GI50,HS 578T breast,39.4 µM
same,TGI,HS 578T breast,> 100 µM
same,GI50,ACHN renal,> 100 µM
same,TGI,ACHN renal,> 100 µM
same,GI50,NCI-H23 lung,> 100 µM
same,TGI,NCI-H23 lung,> 100 µM
same,GI50,COLO 205 colon,> 100 µM
same,TGI,COLO 205 colon,> 100 µM
same,GI50,MCF7 breast,73.5 µM
same,TGI,MCF7 breast,> 100 µM
same,GI50,A549 NSCLC,> 100 µM
same,TGI,A549 NSCLC,> 100 µM
same,GI50,SF-268 CNS,> 100 µM
same,TGI,SF-268 CNS,> 100 µM
same,GI50,EKVX NSCLC,> 100 µM
same,TGI,EKVX NSCLC,> 100 µM
same,GI50,NCI/ADR-RES ovarian,> 100 µM
same,TGI,NCI/ADR-RES ovarian,> 100 µM
same,GI50,786-0 renal,> 100 µM
same,TGI,786-0 renal,> 100 µM
same,GI50,HT29 colon,> 100 µM
same,TGI,HT29 colon,> 100 µM
same,GI50,OVCAR-5 ovarian,> 100 µM
same,TGI,OVCAR-5 ovarian,> 100 µM
same,GI50,MDA-MB-231 breast,12.7 µM
same,TGI,MDA-MB-231 breast,25.3 µM
same,GI50,BT-549 breast,66.1 µM
same,TGI,BT-549 breast,> 100 µM
same,GI50,KM12 colon,56.5 µM
same,TGI,KM12 colon,> 100 µM
same,GI50,OVCAR-4 ovarian,36.3 µM
same,TGI,OVCAR-4 ovarian,> 100 µM
same,GI50,UACC-62 melanoma,> 100 µM
same,TGI,UACC-62 melanoma,> 100 µM
same,GI50,UACC-257 melanoma,> 100 µM
same,TGI,UACC-257 melanoma,> 100 µM
same,GI50,RPMI-8226 leukemia,25.3 µM
same,TGI,RPMI-8226 leukemia,> 100 µM
same,GI50,HCT-15 colon,57.7 µM
same,TGI,HCT-15 colon,> 100 µM
same,GI50,HCC-2998 colon,42.1 µM
same,TGI,HCC-2998 colon,> 100 µM
same,GI50,SK-MEL-5 melanoma,53.5 µM
same,TGI,SK-MEL-5 melanoma,> 100 µM
same,GI50,SK-MEL-28 melanoma,> 100 µM
same,TGI,SK-MEL-28 melanoma,> 100 µM
same,GI50,TK-10 renal,> 100 µM
same,TGI,TK-10 renal,> 100 µM
same,GI50,MDA-MB-435,> 100 µM
same,TGI,MDA-MB-435,> 100 µM
same,GI50,SK-OV-3 ovarian,> 100 µM
same,TGI,SK-OV-3 ovarian,> 100 µM

# — PubChem BioAssay (NCI)
